# Measurements reported in publication PMC10959927, “Platinum iodido drugs show potential anti-tumor activity, affecting cancer cell metabolism and inducing ROS and senescence in gastrointestinal cancer cells” (Communications Biology, 2024).
# Values joined by “and” are separate entries in the source; they are usually repeats but may differ in a detail not shown here. Equal values may be shown once. Read-outs that look alike come from different tables or passages of the source.
# Assays:
# AGS cells [1] = assay: Cell viability, crystal violet staining; conditions: read-out: IC50 concentration (± SD) at 48 h, AGS, 48 h
# Experimental: (§1) Cell viability was assessed using a crystal violet-based staining method. […] The cells (2 × 10^5) were seeded in 24-multiwell dishes in 0.5 mL of complete medium and incubated overnight. […] After 48 h, cells were fixed with 1% glutaraldehyde (20–30 min), washed with distilled water, and stained with 0.1% crystal violet. […] IC50 were calculated by using GraphPad Prism (version 8.0). Nonlinear regression was used to fit the data to the log (inhibitor) versus response (variable slope).
# MKN45 cells [2] = assay: Cell viability, crystal violet staining; conditions: read-out: IC50 concentration (± SD) at 48 h, 48 h
# Experimental: as §1
# PANC1 cells [3] = assay: Cell viability, crystal violet staining; conditions: read-out: IC50 concentration (± SD) at 48 h, 48 h
# Experimental: as §1
# CC2509 fibroblasts = assay: Cell viability, crystal violet staining, non-tumoral cells; conditions: read-out: IC50 concentration (± SD) at 48 h in non-tumoral cell lines; CC2509, 48 h
# Experimental: as §1
# HPDE cells = assay: as above; conditions: read-out: IC50 concentration (± SD) at 48 h in non-tumoral cell lines
# Experimental: as §1
# [4] = test system: telomeres, 36B4, MT-COX1, MT-CYB DNA of MKN45 cells; assay: Oxidized bases (FPG-sensitive lesions) in genome regions by qPCR; format: cell-based, human; conditions: MKN45, IC50 concentration 24 h, normalized to control, single replicates
# Description: (§2) Total cellular DNA from MKN45 and PANC1 cells was extracted using an NZY Tissue gDNA Isolation Kit (Nzytech, MB13503) following the manufacturer’s instructions and quantified using a Nanodrop (Nanodrop Spectrophotometer ND-1000, ThermoFisher Scientific, Wilmington, DE, USA). We adapted the procedure described by O’Callaghan et al.[76] to measure oxidative DNA damage at telomeres, 36B4 genomic region and at mitochondrial DNA (MT-COX1, MT-CYB). This is a qPCR method based on differences in PCR kinetics between DNA template digested by Formamidopyrimidine DNA Glycosylase (FPG, Cat no. M0240S) and undigested DNA. This enzyme recognizes and cuts 8-oxoguanine, producing apurinic sites that are converted into single-strand breaks by its apurinic sites lyase activity. These single-strand breaks inhibit the PCR, thus, the ΔCT after digesting DNA by […] (Ct digested–Ct undigested) is proportional to the oxidative damage in the amplified region. DNA was incubated with 8 Units of FPG during 3 h in FPG buffer (NEB1, M0240S). The reaction was stopped by incubation at 95 °C for 5 min. qPCR analysis was performed on 40 ng of digested or undigested genomic DNA. Each qPCR was performed in triplicate including no-template controls in a StepOne Real‐time PCR System (Applied Biosystems, 4376357). Target genes (Table 3) were amplified using SYBR Green (Applied Biosystems, MB345). Thermal cycling of the qPCR reaction was initiated with a denaturation step at 95 °C for 10 min. The process consisted of 40 cycles (denaturation at 95 °C for 15 sec, annealing at 60 °C for 30 sec, and elongation at 72 °C for 30 sec). This experiment was repeated three independent times with 10–12 replicates.
# [5] = test system: telomeres, 36B4, MT-COX1, MT-CYB DNA of PANC1 cells; assay: as above; format: cell-based, human; conditions: PANC1, IC50 concentration 24 h, normalized to control, single replicates
# Description: as §2
# AGS cells [6] = assay: SA-β-Gal activity, CellEvent Senescence Green flow cytometry;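 note: IC50 concentration of each compound relative to untreated control set as 1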; format: cell-based, human; conditions: Fig. 3A, replicate values
# Experimental: (§3) SA-β-Gal activity was measured following two different approaches. (i) AGS, MKN45 and PANC1 cells (5 × 10^4) were seeded in 24-multiwell dishes and incubated overnight. […] For flow cytometry cell senescence detection, cells were tripsinized, fixed for 15 min with PFA 4% and stained with the CellEvent Senescense Green Flow Cytometry Assay Kit (C10840, Invitrogen) according to manufacturer’s instructions. CellEvent Senescense Green Probe was used at a 1:500 dilution and fluorescence was detected using the filter (Ex488nm/Em530/30) BL1 with a 4-laser Attune NxT Acoustic Cytometer (Thermo Fisher Scientific). […] After 3 h, the treatments were removed, new supplemented medium was added, and cells were incubated for an additional 24 h. Finally, SA-β-Gal staining was performed using the Senescence Cells Histochemical Staining Kit (CS0030-1KT) according to the manufacturer’s instructions.
# MKN45 cells [7] = assay: as above; format: cell-based, human; conditions: Fig. 3A, replicate values
# Experimental: as §3
# PANC1 cells [8] = assay: as above; format: cell-based, human; conditions: Fig. 3A, replicate values
# Experimental: as §3
# AGS cells [9] = assay: SA-β-Gal histochemical staining; format: cell-based, human; conditions: Fig. S4A
# Experimental: as §3
# PANC1 cells [10] = assay: Ratio GSH/GSSG, colorimetric kit; format: cell-based, human
# Experimental: GSH and GSSG levels were determined in AGS and PANC1 cells after 3 and 24 h of treatment with the compounds (using H2O2 as a positive control) with the Glutathione Colorimetric Detection Kit (ThermoFisher) following the manufacturer’s instructions. Thirty minutes after adding the Colorimetric Detection Reagent and the Reaction Mixture, the absorbance was read at 405 nm. A standard curve was generated with each assay to interpolate the sample results. To measure GSSG, standards and samples must be diluted with the Sample Diluent containing 2-vinylpyridine.
# PANC1 cells [11] = assay: Clonogenic (CFU) assay after 1, 3, 24 h pre-treatment; format: cell-based, human
# Experimental: For the clonogenic assay we used two different approaches. […] Then, cells were cultured in a 6-well plate at a very low concentration (2 × 10^3 cells per well) and incubated for 10 days. […] To evaluate the role of ROS in cell proliferation, we supplemented the growth medium with 0.5 mM NAC. After 10 days, the cells were fixed with 1% glutaraldehyde and stained with 0.1% crystal violet. The number of colonies was quantified directly and reflected as CFUs: Colony Forming Units.
smiles,measurement,setting,value
"[NH2][Pt]([NH2])([Cl])[Cl] [CDDP, cisplatin, reference compound]",IC50,AGS cells [1]; NAC (+) 0.5 mM,22.7 ± 4.03 µM
same,IC50,AGS cells [1]; NAC (-),26.7 ± 2.21 µM
same,IC50,"MKN45 cells [2]; MKN45, NAC (+) 0.5 mM",10.2 ± 1.56 µM
same,IC50,"MKN45 cells [2]; MKN45, NAC (-)",10 µM and 9.45 µM
same,IC50,"PANC1 cells [3]; PANC1, NAC (+) 0.5 mM",9.46 ± 1.29 µM
same,IC50,"PANC1 cells [3]; PANC1, NAC (-)",10 µM and 12.3 µM
same,IC50,CC2509 fibroblasts,25 µM and 23.8 µM
same,IC50,HPDE cells,0.45 ± 0.05 µM
same,"TEL (Fold change - ΔCt TEL), oxidative DNA damage",[4]; FPG-digested vs undigested,2.134 and 3.241 and 3.532 and 0.2864 and 0.7917 and 1.101 and 0.9693 and 0.9768 and 0.981 and 0.9672
same,"36B4 (Fold change - ΔCt 36B4), oxidative DNA damage",[4],0.8255 and 0.8326 and 1.095 and 1.237 and 1.611 and 1.72 and 2.271 and 2.214 and 1.327 and 2.203
same,"MT-COX1 (Fold change - ΔCt MT-COX1), oxidative DNA damage",[4],1.028 and 1.042 and 1.044 and 1.141 and 0.8202 and 0.6032 and 2.316 and 2.623 and 3.028
same,"MT-CYB (Fold change - ΔCt MT-CYB), oxidative DNA damage",[4],1.38 and 1.409 and 1.605 and 1.1947 and 1.217 and 1.312 and 1.3882 and 2.275 and 1.316 and 2.313
same,"TEL (Fold change - ΔCt TEL), oxidative DNA damage",[5]; FPG-digested vs undigested,4.038 and 4.138 and 5.415 and 0.6214 and 0.3967 and 0.9429 and 1.679 and 1.417 and 1.6318 and 1.586
same,"36B4 (Fold change - ΔCt 36B4), oxidative DNA damage",[5],1.144 and 1.346 and 0.8021 and 1.678 and 2.371 and 2.867 and 3.452 and 2.312 and 2.5645
same,"MT-COX1 (Fold change - ΔCt MT-COX1), oxidative DNA damage",[5],1.1557 and 1.18 and 1.253 and 1.195 and 2.153 and 0.9478 and 1.587 and 1.014 and 1.075 and 1.118
same,"MT-CYB (Fold change - ΔCt MT-CYB), oxidative DNA damage",[5],1.618 and 1.296 and 1.304 and 1.472 and 1.131 and 1.532 and 1.619 and 1.965 and 6.543 and 5.482 and 6.158 and 5.629
same,Fold change % Senescence,AGS cells [6],1.16 fold change and 1.15 fold change and 1.2 fold change
same,Fold change % Senescence,MKN45 cells [7],1.67 fold change and 1.92 fold change and 1.87 fold change
same,Fold change % Senescence,PANC1 cells [8],1.64 fold change and 1.11 fold change and 1.53 fold change
same,Fold change % Senescence,AGS cells [9],58.33% and 50% and 67.21%
same,GSH/GSSG,"PANC1 cells [10]; PANC1, 3, relative to Control = 1",0.8204 and 0.833 and 0.8843
same,GSH/GSSG,"PANC1 cells [10]; PANC1, 24, relative to Control = 1",0.8133 and 0.9393 and 0.9531
same,CFUs,"PANC1 cells [11]; PANC1, 1 h pre-treatment at IC50, colonies after 10 days",160 and 132 and 144
same,CFUs,"PANC1 cells [11]; PANC1, 3 h pre-treatment at IC50, colonies after 10 days",20 and 28 and 36
